# Reference: publication PMC12454493, “Insight on novel sulfamoylphenyl pyrazole derivatives as anticancer carbonic anhydrase inhibitors” (Molecular Diversity, 2024)
# Key:
# [1] = system: MALME-3M; assay: NCI-60 one-dose SRB screen (Melanoma); type: cell-based; details: Homo sapiens, single dose 10 µM, 48 h, read-out: Growth inhibition percent (GI %)
# Description: (§1) The National Cancer Institute (NCI) Developmental Therapeutic Program (www.dtp.nci.nih.gov) selected the 20 novel synthesized compounds 4a-e, 5a-e, 6a-c, 9a-e, 10 and 11 to test for their anticancer activity at a single dose of 10 µM using SRB assay. […] Supplementary Data S3; Table S1 presents the detailed screening results of the most promising compounds. The preliminary screening’s detailed results for the remaining compounds are elucidated in the (Supplementary Data S3; Table S2).
# (§2) The guidelines of the Drug Evaluation Branch’s protocol at the NCI in Bethesda served as the basis for the in vitro anticancer screening assays. at one dose 10 µM against a panel of 60 cancer cell lines. The human tumor cell lines used belonged to nine panels: leukemia, melanoma, lung, colon, CNS, ovarian, renal, prostate and breast cancers using the sulforhodamine B (SRB) assay in a 48 h drug exposure protocol.
# [2] = system: MDA-MB-435; assay: NCI-60 one-dose SRB screen (Melanoma); type: cell-based; details: Homo sapiens, single dose 10 µM, 48 h, read-out: Growth inhibition percent (GI %)
# Description: as §1, §2
# [3] = system: SK-MEL-28; assay: NCI-60 one-dose SRB screen (Melanoma); type: cell-based; details: Homo sapiens, single dose 10 µM, 48 h, read-out: Growth inhibition percent (GI %)
# Description: as §1, §2
# [4] = system: SK-MEL-2; assay: NCI-60 one-dose SRB screen (Melanoma); type: cell-based; details: Homo sapiens, single dose 10 µM, 48 h, read-out: Growth inhibition percent (GI %)
# Description: as §1, §2
# [5] = system: SK-MEL-5; assay: NCI-60 one-dose SRB screen (Melanoma); type: cell-based; details: Homo sapiens, single dose 10 µM, 48 h, read-out: Growth inhibition percent (GI %)
# Description: as §1, §2
# [6] = system: UACC-257; assay: NCI-60 one-dose SRB screen (Melanoma); type: cell-based; details: Homo sapiens, single dose 10 µM, 48 h, read-out: Growth inhibition percent (GI %)
# Description: as §1, §2
# [7] = system: UACC-62; assay: NCI-60 one-dose SRB screen (Melanoma); type: cell-based; details: Homo sapiens, single dose 10 µM, 48 h, read-out: Growth inhibition percent (GI %)
# Description: as §1, §2
# [8] = system: IGROV1; assay: NCI-60 one-dose SRB screen (Ovarian cancer); type: cell-based; details: Homo sapiens, IGROV-1, single dose 10 µM, 48 h, read-out: Growth inhibition percent (GI %)
# Description: as §1, §2
# [9] = system: NCI/ADR-RES; assay: NCI-60 one-dose SRB screen (Ovarian cancer); type: cell-based; details: Homo sapiens, single dose 10 µM, 48 h, read-out: Growth inhibition percent (GI %)
# Description: as §1, §2
# [10] = system: OVCAR-3; assay: NCI-60 one-dose SRB screen (Ovarian cancer); type: cell-based; details: Homo sapiens, single dose 10 µM, 48 h, read-out: Growth inhibition percent (GI %)
# Description: as §1, §2
# [11] = system: OVCAR-4; assay: NCI-60 one-dose SRB screen (Ovarian cancer); type: cell-based; details: Homo sapiens, single dose 10 µM, 48 h, read-out: Growth inhibition percent (GI %)
# Description: as §1, §2
# [12] = system: OVCAR-5; assay: NCI-60 one-dose SRB screen (Ovarian cancer); type: cell-based; details: Homo sapiens, single dose 10 µM, 48 h, read-out: Growth inhibition percent (GI %)
# Description: as §1, §2
# [13] = system: OVCAR-8; assay: NCI-60 one-dose SRB screen (Ovarian cancer); type: cell-based; details: Homo sapiens, single dose 10 µM, 48 h, read-out: Growth inhibition percent (GI %)
# Description: as §1, §2
# [14] = system: SK-OV-3; assay: NCI-60 one-dose SRB screen (Ovarian cancer); type: cell-based; details: Homo sapiens, single dose 10 µM, 48 h, read-out: Growth inhibition percent (GI %)
# Description: as §1, §2
# [15] = system: 786-0; assay: NCI-60 one-dose SRB screen (Renal Cancer); type: cell-based; details: Homo sapiens, single dose 10 µM, 48 h, read-out: Growth inhibition percent (GI %)
# Description: as §1, §2
# [16] = system: A498; assay: NCI-60 one-dose SRB screen (Renal Cancer); type: cell-based; details: Homo sapiens, single dose 10 µM, 48 h, read-out: Growth inhibition percent (GI %)
# Description: as §1, §2
# [17] = system: ACHN; assay: NCI-60 one-dose SRB screen (Renal Cancer); type: cell-based; details: Homo sapiens, single dose 10 µM, 48 h, read-out: Growth inhibition percent (GI %)
# Description: as §1, §2
# [18] = system: CAKI-1; assay: NCI-60 one-dose SRB screen (Renal Cancer); type: cell-based; details: Homo sapiens, single dose 10 µM, 48 h, read-out: Growth inhibition percent (GI %)
# Description: as §1, §2
# [19] = system: RXF 393; assay: NCI-60 one-dose SRB screen (Renal Cancer); type: cell-based; details: Homo sapiens, single dose 10 µM, 48 h, read-out: Growth inhibition percent (GI %)
# Description: as §1, §2
# [20] = system: TK-10; assay: NCI-60 one-dose SRB screen (Renal Cancer); type: cell-based; details: Homo sapiens, single dose 10 µM, 48 h, read-out: Growth inhibition percent (GI %)
# Description: as §1, §2
# [21] = system: UO-31; assay: NCI-60 one-dose SRB screen (Renal Cancer); type: cell-based; details: Homo sapiens, single dose 10 µM, 48 h, read-out: Growth inhibition percent (GI %)
# Description: as §1, §2
# [22] = system: DU-145; assay: NCI-60 one-dose SRB screen (Prostate Cancer); type: cell-based; details: Homo sapiens, single dose 10 µM, 48 h, read-out: Growth inhibition percent (GI %)
# Description: as §1, §2
# [23] = system: PC-3; assay: NCI-60 one-dose SRB screen (Prostate Cancer); type: cell-based; details: Homo sapiens, single dose 10 µM, 48 h, read-out: Growth inhibition percent (GI %)
# Description: as §1, §2
# [24] = system: BT-549; assay: NCI-60 one-dose SRB screen (Breast Cancer); type: cell-based; details: Homo sapiens, single dose 10 µM, 48 h, read-out: Growth inhibition percent (GI %)
# Description: as §1, §2
# [25] = system: HS 578T; assay: NCI-60 one-dose SRB screen (Breast Cancer); type: cell-based; details: Homo sapiens, single dose 10 µM, 48 h, read-out: Growth inhibition percent (GI %)
# Description: as §1, §2
# [26] = system: MCF-7; assay: NCI-60 one-dose SRB screen (Breast Cancer); type: cell-based; details: Homo sapiens, MCF7, single dose 10 µM, 48 h, read-out: Growth inhibition percent (GI %)
# Description: as §1, §2
# [27] = system: MDA-MB-231/ATCC; assay: NCI-60 one-dose SRB screen (Breast Cancer); type: cell-based; details: Homo sapiens, single dose 10 µM, 48 h, read-out: Growth inhibition percent (GI %)
# Description: as §1, §2
# [28] = system: MDA-MB-468; assay: NCI-60 one-dose SRB screen (Breast Cancer); type: cell-based; details: Homo sapiens, single dose 10 µM, 48 h, read-out: Growth inhibition percent (GI %)
# Description: as §1, §2
# [29] = system: T-47D; assay: NCI-60 one-dose SRB screen (Breast Cancer); type: cell-based; details: Homo sapiens, T47D, single dose 10 µM, 48 h, read-out: Growth inhibition percent (GI %)
# Description: as §1, §2
# [30] = target: hCA XII (Homo sapiens, UniProt O43570); assay: CA inhibitory activity, spectrophotometric p-NPA assay; type: biochemical; details: p-NPA substrate, pH 7.5, 25 °C, triplicate; read-out: IC50 (µM) ± SD hCA XII
# Chain of hCA XII (O43570 25-354): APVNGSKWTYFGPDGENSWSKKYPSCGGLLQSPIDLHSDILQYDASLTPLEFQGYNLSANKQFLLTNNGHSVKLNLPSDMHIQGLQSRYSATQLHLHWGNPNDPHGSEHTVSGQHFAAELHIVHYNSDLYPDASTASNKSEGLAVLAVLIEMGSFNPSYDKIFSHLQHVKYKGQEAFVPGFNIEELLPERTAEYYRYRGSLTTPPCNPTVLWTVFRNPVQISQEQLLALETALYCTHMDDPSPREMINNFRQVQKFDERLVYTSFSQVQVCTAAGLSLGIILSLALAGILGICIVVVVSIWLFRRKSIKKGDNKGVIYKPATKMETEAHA
# Description: The software used to calculate CA IC50 along with statistical analysis of the results is GraphPad Prism 9.00. Results were estimated by using one-way ANOVA and the Bonferroni’s multiple comparisons posthoc test was performed (P < 0.05) [46]
# Carbonic anhydrase inhibitory activity:
# The spectrophotometric assay was conducted in HEPES-Tris buffer, NaCl of pH 7.5 (20mM) at 25◦C. Each inhibitory well-consisted of 50 μL of assay buffer solution, 20 μL of hCA enzyme solution (20 ng/μL in Assay Buffer), and 50 μL of test compound in HPLC grade DMSO (maintain 10% of the final concentration). The mixture solution was
# Substrate p-nitrophenyl acetate (p-NPA) (0.7mM) was prepared in HPLC grade methanol and the reaction was started by adding 20 μL to a well in a 96-well-plate. The amount of product formed was measured for 30 min continuously at 1 min intervals at 400 nm in a 96-well-plate using xMARK microplate spectrophotometer, Bio-Rad (USA). The activity of the controlled compound was taken as 100%. All experiments were carried out in triplicates of each used concentration, and results are represented as a
smiles,measurement,setting,value
"COc1ccc(-c2nn(-c3ccc(S(N)(=O)=O)cc3)cc2C(=O)NNC(N)=S)cc1 [Compound 9c, 2-[3-(4-Methoxyphenyl)-1-(4-sulfamoylphenyl)-1H-pyrazole-4-carbonyl] hydrazine-1-carbothioamide]",inhibition at 10 µM,[1],< 5%
same,inhibition at 10 µM,[2],< 5%
same,inhibition at 10 µM,[3],< 5%
same,inhibition at 10 µM,[4],< 5%
same,inhibition at 10 µM,[5],< 5%
same,inhibition at 10 µM,[6],< 5%
same,inhibition at 10 µM,[7],8.41%
same,inhibition at 10 µM,[8],< 5%
same,inhibition at 10 µM,[9],< 5%
same,inhibition at 10 µM,[10],< 5%
same,inhibition at 10 µM,[11],< 5%
same,inhibition at 10 µM,[12],< 5%
same,inhibition at 10 µM,[13],< 5%
same,inhibition at 10 µM,[14],< 5%
same,inhibition at 10 µM,[15],< 5%
same,inhibition at 10 µM,[16],< 5%
same,inhibition at 10 µM,[17],< 5%
same,inhibition at 10 µM,[18],< 5%
same,inhibition at 10 µM,[19],< 5%
same,inhibition at 10 µM,[20],< 5%
same,inhibition at 10 µM,[21],< 5%
same,inhibition at 10 µM,[22],< 5%
same,inhibition at 10 µM,[23],< 5%
same,inhibition at 10 µM,[24],< 5%
same,inhibition at 10 µM,[25],< 5%
same,inhibition at 10 µM,[26],< 5%
same,inhibition at 10 µM,[27],< 5%
same,inhibition at 10 µM,[28],< 5%
same,inhibition at 10 µM,[29],< 5%
same,IC50,[30],0.168 ± 0.006 µM
same,melting point,,205 to 207 °C
